{
  "source": "patent US20070142355A1",
  "about": "“Association of a sinus node If curent inhibitor and an angiotensin converting enzyme inhibitor, and pharmaceutical compositions containing it” (LES LABORATOIRES SERVIER, priority 2005, published 2007)",
  "origin": "cited, not measured here",
  "details": "ivabradine alone, as generally established in clinical trials",
  "data": [
    {"smiles": "COc1cc2c(cc1OC)CC(=O)N(CCCN(C)C[C@H]1Cc3cc(OC)c(OC)cc31)CC2", "note": "[ivabradine, 3-{3-[{[(7S)-3,4-dimethoxy-bicyclo[4.2.0]octa-1,3,5-trien-7-yl]methyl}(methyl)amino]propyl}-7,8-dimethoxy-1,3,4,5-tetrahydro-2H-3-benzazepin-2-one]", "values": [
      {"measurement": "slight increase in systolic arterial pressure", "value": "~1", "unit": "mmHg"}
    ]}
  ]
}
